Reference: patent US20080318268A1, “Devices and Methods for the Selection of Agents with Efficacy Against Biofilm” (priority 2005, published 2008)
Like-named read-outs stand apart in the source and are kept apart here.

Assays:
Format in all cases: cell-based
[1] = tested on: planktonic Staphylococcus aureus; test: Staphylococcus test plate, planktonic forms (Example 9); settings: breakpoint concentrations, number in the label is the concentration tested
[2] = tested on: Staphylococcus aureus (Staph) planktonic bacteria; test: MBEC assay, planktonic Staph isolates (Example 5); settings: number of resistant isolates; 12 isolates from device associated infections; exposed 24 hours
[3] = tested on: Pseudomonas aeruginosa (Ps) biofilm; test: MBEC assay, Ps biofilms (Example 5); settings: number of resistant isolates; 12 isolates from Cystic Fibrosis patients; exposed 24 hours
planktonic P. aeruginosa = test: Pseudomonas aeruginosa biofilm assay kit, planktonic MIC reading of challenge plate (Example 8); settings: challenge 24 hours at 35° C.; breakpoint concentrations
[4] = tested on: Pseudomonas aeruginosa (Ps) planktonic bacteria; test: MBEC assay, planktonic Ps isolates (Example 5)
P. aeruginosa biofilm = test: Pseudomonas aeruginosa biofilm assay kit, biofilm MBEC reading of recovery plate (Example 8); settings: challenge 24 hours at 35° C.; recovery 20 to 24 hours; breakpoint concentrations
planktonic Candida cells = test: Planktonic antifungal sensitivity of Candida spp.; settings: all species tested
Description: Three clinical isolates of Candida were used in this study, including one albicans and two non-albicans species. C. albicans ATCC 14053 was obtained from the University Of Calgary, Department Of Biological Sciences. C. tropicalis 99916 and C. glabrata 14326 were obtained from the dialysate of patients undergoing continued ambulatory peritoneal dialysis (CAPD). Aspergillus fumigatus was also tested.
Biofilm susceptibility testing uses the pegged lid of the assembly, now containing biofilms formed after rocking in the tray for 24 hour. Each peg on the lid was gently washed once in 200 μl of phosphate buffered saline solution (PBSS) in a 96-well microtiter plate (Falcon). The pegged lid was then transferred to another 96 well microtiter plate containing 2 fold dilutions antifungal agent in 200 μl of RPMI 1640 (Sigma, St. Louis, Mo.) or RPMI 1640 containing 1% DMSO (see test drug section). After the pegs were exposed to the drugs for 24 hours, the pegged lid was removed and gently rinsed twice in saline. The pegged lid was then placed on a 96 well plate containing RPMI 1640 recovery medium. The pegs were sonicated for 5 minutes (Candida spp.) or 7 minutes (Aspergillus) in an ultrasonicator to dislodge adherent cells into the recovery medium. Aliquots of 20 μl of the recovery medium were spot plated on SDA (Candida spp) or Rose Bengal Agar (A. fumigatus) to obtain the MBEC. The assembly was also used to determine the minimum inhibitory concentration (MIC) and minimum fungicidal concentration (MFC). The turbidity of the wells that contained the antibiotic and planktonic cells which were shed from the biofilm was measured at 650 nm to obtain the MIC. A 20 μl sample from each well was also spot plated onto Sabouraud Dextrose agar (Candida spp) or Rose Bengal Agar (A. fumigatus) to obtain the MFC.
Minimum Inhibitory Concentrations (MIC) and Minimum Fungicidal Concentrations (MFC) were determined according to the guidelines of the National Committee for Clinical laboratory Standards (NCCLS). Briefly, Candida sp. were maintained on polystyrene spheres at −70° C. until plating. These organisms were streaked onto Sabouraud Dextrose agar (Microbiologie) plates 24 hours before test initiation. The 24 hour colonies were picked from the agar plates and placed in Muellar-Hinton Broth (MHB, Microbiologie) such that the turbidity matched a McFarland standard of 0.5. This was then diluted 1:10 in MHB to obtain a suspension of approximately 1×10^5 to 5×10^5 CFU/ml. A 5 μl volume of this suspension was added to wells containing 200 μl of antifungal agent serially diluted in RPMI 1640 media (Sigma) in a 96 well microtiter plate (Nunclon). A. fumigatus was maintained as a spore suspension at 4° C. until testing. The spore suspension (50 μl) was diluted into 250 ml of TSB, and 5 μl of this suspension was added to each test well containing dilution of antifungal agent as above.
The test wells were then incubated at 37° C. for 24 hours with the antifungal drugs. MICs for Candida were obtained after incubation by reading the turbidity at 650 nm on a microtiter plate reader (Softmax, VWR). A 20 μl aliquot of each well was also plated (SDA) and MFCs obtained from them after 24 hours incubation at 37° C. MFCs were determined for Aspergillus by plating 100 μl from each well onto Rose Bengal Agar, followed by spreading with a sterile glass spreader. The plated organisms were maintained at 25° C. for three days before colony enumeration.
Drugs tested. Itraconazole, Fluconazole, and Ketoconazole were obtained from Janssen Pharmaceuticals in Brussels, Belgium. Nystatin 5-Fluorocytosine, Griseofulvin, Amphotericin B and Polymyxin B were obtained from Sigma Chemical Co, St. Louis, Mo. 5-Fluorocytosine, polymyxin B sulphate and nystatin were dissolved in double-distilled water to a concentration of 10.24 mg/ml and diluted in the test wells through a range of 1024 μg/ml to 0.125 μg/ml in RPMI. […]

[5] = number of resistant isolates, 12 isolates from Cystic Fibrosis patients, exposed 24 hours

| Molecule | Ps resistance to individual antibiotics and antibiotic combinations, Biofilm [3] | Number of P. aeruginosa isolates resistant to individual antibiotics and antibiotic combinations, Planktonic (planktonic P. aeruginosa) | Ps resistance to individual antibiotics and antibiotic combinations, Planktonic [4, 5] | Number of P. aeruginosa isolates resistant to individual antibiotics and antibiotic combinations, Biofilm (P. aeruginosa biofilm) | further results |
| --- | --- | --- | --- | --- | --- |
| CCC[C@@H]1C[C@@H](C(=O)N[C@@H]([C@H]2O[C@H](SC)[C@H](O)[C@@H](O)[C@H]2O)[C@H](C)Cl)N(C)C1 [CLIN, clindamycin] | – | – | – | – | Number of Staphylococcus aureus isolates resistant to individual antibiotics and antibiotic combinations, Planktonic ([1]; listed as CLI1): 8; Number of Staphylococcus aureus isolates resistant to individual antibiotics and antibiotic combinations, Planktonic ([1]; listed as CLI4): 5; Staph resistance to individual antibiotics and antibiotic combinations, Planktonic [2]: 9 |
| Colistin [CLO] | 12 | 2 | 2 | 12 | – |
| O=C(O)c1cn(C2CC2)c2cc(N3CCNCC3)c(F)cc2c1=O [CIPRO, ciprofloxacin] | – | 4 | – | – | Number of Staphylococcus aureus isolates resistant to individual antibiotics and antibiotic combinations, Planktonic [1]: 7; Staph resistance to individual antibiotics and antibiotic combinations, Planktonic [2]: 10; Ps resistance to individual antibiotics and antibiotic combinations, Planktonic [4]: 4 |
| CC(C)(O/N=C(\C(=O)N[C@@H]1C(=O)N2C(C(=O)[O-])=C(C[n+]3ccccc3)CS[C@H]12)c1csc(N)n1)C(=O)O [CFTZ, ceftazidime] | 12 | 3 | 3 | 12 | – |
| C[C@H]1[C@H](NC(=O)/C(=N\OC(C)(C)C(=O)O)c2csc(N)n2)C(=O)N1S(=O)(=O)O [AZTR, aztreonam] | – | 0 | – | – | Ps resistance to individual antibiotics and antibiotic combinations, Planktonic [4]: 0 |
| NC[C@H]1O[C@H](O[C@H]2[C@H](O)[C@@H](O[C@H]3O[C@H](CO)[C@@H](O)[C@H](N)[C@H]3O)[C@H](N)C[C@@H]2N)[C@H](N)C[C@@H]1O [TB, tobramycin] | 12 | 3 | 3 | 12 | – |
| CC(=O)N1CCN(c2ccc(OCC3COC(Cn4ccnc4)(c4ccc(Cl)cc4Cl)O3)cc2)CC1 (stereo not shown) [ketoconazole, Ketoconazole] | – | – | – | – | effectiveness in killing planktonic Candida cells (planktonic Candida cells): effective |
| Cc1nnc(SCC2=C(C(=O)O)N3C(=O)[C@@H](NC(=O)Cn4cnnn4)[C@H]3SC2)s1 [CFZ, cefazolin] | – | – | – | – | Number of Staphylococcus aureus isolates resistant to individual antibiotics and antibiotic combinations, Planktonic ([1]; listed as CFZ4): 4; Number of Staphylococcus aureus isolates resistant to individual antibiotics and antibiotic combinations, Planktonic ([1]; listed as CFZ8): 6; Staph resistance to individual antibiotics and antibiotic combinations, Planktonic [2]: 2 |
| C[C@@H](O)[C@H]1C(=O)N2C(C(=O)O)=C(SCCN=CN)C[C@H]12 [IMP, imipenem] | 12 | 12 | 12 | 12 | – |
| NCC[C@H](O)C(=O)N[C@@H]1C[C@H](N)[C@@H](O[C@H]2O[C@H](CN)[C@@H](O)[C@H](O)[C@H]2O)[C@H](O)[C@H]1O[C@H]1O[C@H](CO)[C@@H](O)[C@H](N)[C@H]1O [AK, amikacin] | 11 | 8 | 8 | 11 | – |
| Nc1nc(=O)[nH]cc1F [5-fluorocytosine, 5-Fluorocytosine] | – | – | – | – | effectiveness in killing planktonic Candida cells (planktonic Candida cells): effective |
